Experimental data from patent EP4711371A1 (priority 2023, dated 2024).
Read-outs that look alike come from different tables or passages of the source.

Assays:
Type in all cases: cell-based
[1] = test system: NCI-N87; experiment: In vitro proliferation inhibition assay of camptothecin derivatives (Payload), Test Example 1; settings: Homo sapiens, NCI-N87, 96 h, read-out: NCI-N87 IC50
Source text: (§1) The control compounds used in the experiment were DXD (synthesized from EXD according to the synthesis method of patent EP2907824B1. EXD was purchased from MedChemExpress, catalog number: HY-13631A) and SN38 (purchased from Bide Pharmatech, catalog number BD8481). Their structural formulas are [drawing 515] respectively.
(§2) The cell lines used in this experiment were human breast cancer cells SK-BR-3, T47D, MDA-MB-453, human malignant melanoma cells A375, human lung squamous carcinoma cells NCI-H1703, and human gastric cancer cells NCI-N87. Cell suspensions were prepared in fresh cell culture medium containing 10% FBS and then diluted to a density of 5 × 10^4 cells/mL, 10×10^4 cells/mL, 100 µL per well was added to a 96-well cell culture plate (Thermo catalog number: 167425), and cultured at 37°C with 5% carbon dioxide for 24 h.
(§3) The test compounds of the present invention and the control compounds were each prepared to 10 mM stock solutions in DMSO, and the drugs were diluted with 5% FBS 1640 culture medium in a gradient of 50, 10, 2, 0.4, 0.08, 0.016, 0.0032, 0.00064, 0.000128, and 0 µM, with two replicates for each well.
(§4) 50 µL of cell supernatant was pipetted from each 96-well plate, followed by the addition of 50 µL of compound dilutions at final […] of 25, 5, 1, 0.2, 0.04, 0.008, 0.0016, 0.00032, 0.000064, and 0 µM. After mixing, the cells were cultured in a constant temperature CO2 incubator for 4 days. Cell supernatant was then added with 100 µL of detection reagent (5% FBS1640 medium and CCK-8 solution in a 10:1 ratio) and incubated in an incubator for 4 hours. […] was read on a microplate reader (TECAN, Spark), and data were analyzed using Graphpad Prism 8 software.

[2] = test system: SK-BR-3; experiment: as above; settings: Homo sapiens, SK-BR-3, 96 h, read-out: SK-BR-3 IC50
Source text: as §1, §2, §3, §4

[3] = test system: T47D; experiment: cells; settings: Homo sapiens, 96 h
Source text: as §1, §2, §3, §4

[4] = test system: A375; experiment: In vitro proliferation inhibition assay of camptothecin derivatives (Payload), Test Example 1; settings: Homo sapiens, A-375, 96 h, read-out: A375 IC50
Source text: as §1, §2, §3, §4

[5] = test system: MDA-MB-453; experiment: as above; settings: Homo sapiens, MDA-MB-453, 96 h, read-out: MDA-MB-453 IC50
Source text: as §1, §2, §3, §4

[6] = test system: NCI-H1703; experiment: as above; settings: Homo sapiens, NCI-H1703, 96 h, read-out: NCI-H1703 IC50
Source text: as §1, §2, §3, §4

[7] = test system: T47D; experiment: cells; settings: Homo sapiens, 120 h, read-out: T47D IC50
Method: (§5) Test Example 2 In vitro proliferation inhibition assay of the camptothecin derivatives (Payload) of the present invention on tumor cells 1. Instruments and Reagents
(§6) 2. Experimental Procedure • a. Plating & culture: MDA-MB-453 (purchased from: Xiehe, catalog number: 1101HUM-PUMCO00016)/T47D (Kebai, CBP60397)/HT1376 cells (purchased from: Kebai, catalog number: CBP60310) were cultured into 96-well plates by a density of 1×10^3 /2×10^3 /1×10^3 cells per100 µL, and 200 µL of PBS was added to the outermost circle (to reduce the volatilization of the culture medium), and cultured at 37°C, 5% CO2 incubator for 24 h; • b. Drug Addition & Incubation: The 96-well flat-bottom plate was retrieved. The culture medium in the wells was aspirated, and 100 µL of the ADC drug/payload (diluted in culture medium) was added to each well. The plate was then incubated at 37°C, 5% CO2 incubator for 5 days. 3. Detection and data processing • a. The 96-well plate was retrieved. The culture medium was removed, and 100 µL of detection reagent (CCK8:medium= 1:9) was added to each well. The plate was then placed in a 37°C, 5% CO2 incubator for 4 hours; • b. The optical density (OD) at 450 nm was measured using a microplate reader (model: CEY0017), and the data was recorded with Excel. • c. Graphpad Prism 9.0 was used to analyze and organize the data.

[8] = test system: HT1376; experiment: In vitro proliferation inhibition assay of camptothecin derivatives (Payload), Test Example 2; settings: Homo sapiens, HT-1376, 120 h, read-out: HT1376 IC50
Method: as §5, §6

[9] = test system: MDA-MB-453; experiment: as above; settings: Homo sapiens, MDA-MB-453, 120 h, read-out: MDA-MB-453 IC50
Method: as §5, §6

[10] = payload, cultured 4 days, CCK-8
[11] = payload, cultured 4 days, CCK-8, read-out: T47D IC50
[12] = payload, cultured 4 days, CCK-8, ~ indicates estimated IC50 value

SMILES | IC50 [1, 10] [nM] | IC50 [2, 10] [nM] | IC50 [1] [nM] | IC50 [2] [nM] | IC50 [5, 10] [nM] | IC50 ([3]; read-out: T47D IC50) [nM] | also measured
CC[C@@]1(OC(=O)CCN2CCN(C)CC2)C(=O)OCc2c1cc1n(c2=O)Cc2c-1nc1cc(F)c(C)c3c1c2[C@@H](N)CC3 [Compound 2] | 3.75 | 1.56 |  |  |  |  | 
CCC1(OC(=O)Cc2ccc(OC3OC(CO)C(O)C(O)C3O)cc2)C(=O)OCc2c1cc1n(c2=O)Cc2c-1nc1cc(F)c(C)c3c1c2C(N)CC3 (stereo not drawn) [Compound 3] |  |  | 1.91 | 1.04 |  |  | 
CC[C@@]1(OC(=O)CCN2C(=O)c3ccccc3C2=O)C(=O)OCc2c1cc1n(c2=O)Cc2c-1nc1cc(F)c(C)c3c1c2[C@@H](N)CC3 [Compound 4] | 381 | 183 |  |  |  |  | 
CC[C@@]1(OC(=O)Cn2cc(F)c(=O)[nH]c2=O)C(=O)OCc2c1cc1n(c2=O)Cc2c-1nc1cc(F)c(C)c3c1c2[C@@H](N)CC3 [Compound 6] | 2.23 | 1.23 |  |  | 4.24 |  | IC50 [3, 11]: 0.742 nM; IC50 [4, 12]: 0.164 nM; IC50 [6, 10]: 0.59 nM
CC[C@@]1(OC(=O)CCOCCOCCOCCOC)C(=O)OCc2c1cc1n(c2=O)Cc2c-1nc1cc(F)c(C)c3c1c2[C@@H](N)CC3 [Compound 7] |  |  |  |  | 570 |  | IC50 [3, 11]: 245 nM; IC50 [4, 12]: 0.714 nM; IC50 [6, 10]: 0.064 nM
CC[C@@]1(OC(=O)COc2ccc(Cl)cc2C)C(=O)OCc2c1cc1n(c2=O)Cc2c-1nc1cc(F)c(C)c3c1c2[C@@H](N)CC3 [Compound 9] |  |  |  |  | 3.86 |  | IC50 [3, 11]: 0.804 nM; IC50 [6, 10]: 0.149 nM
CC[C@@]1(O)C(=O)OCc2c1cc1n(c2=S)Cc2c-1nc1cc(F)c(C)cc1c2CN [Compound 11] |  |  | 1.56 | 0.906 |  |  | IC50 [7]: 0.141 nM; IC50 [8]: 3.85 nM; IC50 [9]: 0.645 nM
CC[C@@]1(O)C(=O)OCc2c1cc1n(c2=S)Cc2c-1nc1cc(F)c(C)cc1c2CNC(=O)CO [Compound 17] |  |  | 0.999 | 0.675 |  | 0.172 | IC50 [5]: 1.14 nM
CC[C@@]1(O)C(=O)OCc2c1cc1n(c2=O)Cc2c-1nc1cc(F)c(C)c3c1c2[C@@H](NC(=O)CO)CC3 [DXD, Dxd, reference compound] |  |  | 5.97 | 3.62 |  | 1.02 | IC50 [4]: 0.131 nM; IC50 [5]: 2.87 nM; IC50 [6]: 0.472 nM
CC[C@@]1(O)C(=O)OCc2c1cc1n(c2=O)Cc2c-1nc1cc(F)c(C)c3c1c2[C@@H](N)CC3 [EXD, Exatecan, reference compound] |  |  | 1.45 | 0.866 |  | 0.729 | IC50 [5]: 1.02 nM; IC50 [6]: 0.00789 nM; IC50 [7]: 0.221 nM; IC50 [8]: 8.71 nM; IC50 [9]: 0.902 nM
CC[C@@]1(O)C(=O)OCc2c1cc1n(c2=S)Cc2cc3cc(N)c(F)cc3nc2-1 [Example 46] |  |  | 0.229 | 0.0155 |  |  | 
CCc1c2c(nc3ccc(O)cc13)-c1cc3c(c(=O)n1C2)COC(=O)[C@]3(O)CC [SN38, SN-38, reference compound] | 5.38 | 2.51 |  |  | 32.8 | 2.11 | 
